According to patent US10689378B2, “Triazolopyridine compounds and uses thereof” (Novartis AG, priority 2016, dated 2020):
Where two headings read alike, the source gives them in different places.

Experiments:
[1] = molecular target: T1, EED (1-441)-His protein (Homo sapiens, UniProt O75530); test: EED-H3K27Me3 peptide competition binding assay by AlphaScreen; conditions: read-out: (a) IC50 EED Alphascreen binding Qualified
T1 construct: 30 nM EED (1-441)-His protein
Method in brief: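 Serially diluted compound (12 points, 3-fold) incubated 20 min with 30 nM EED(1-441)-His and 15 nM biotin-H3K27Me3(19-33) peptide in 25 mM HEPES pH 8, 0.02% Tween-20, 0.5% BSA. Ni-chelate acceptor/streptavidin donor beads (10 μg/mL each) added, 1 h rt dark; 615 nm emission normalized to controls, dose-response fit for IC50.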

[2] = molecular target: wild type PRC2 (wtPRC2) complex (Homo sapiens, UniProt O75530); test: EED LC-MS assay (SAH production by PRC2); format: biochemical; conditions: read-out: (b) IC50 EED LC-MS Qualified
Sequence of wild type PRC2 (wtPRC2) complex (O75530 whole entry): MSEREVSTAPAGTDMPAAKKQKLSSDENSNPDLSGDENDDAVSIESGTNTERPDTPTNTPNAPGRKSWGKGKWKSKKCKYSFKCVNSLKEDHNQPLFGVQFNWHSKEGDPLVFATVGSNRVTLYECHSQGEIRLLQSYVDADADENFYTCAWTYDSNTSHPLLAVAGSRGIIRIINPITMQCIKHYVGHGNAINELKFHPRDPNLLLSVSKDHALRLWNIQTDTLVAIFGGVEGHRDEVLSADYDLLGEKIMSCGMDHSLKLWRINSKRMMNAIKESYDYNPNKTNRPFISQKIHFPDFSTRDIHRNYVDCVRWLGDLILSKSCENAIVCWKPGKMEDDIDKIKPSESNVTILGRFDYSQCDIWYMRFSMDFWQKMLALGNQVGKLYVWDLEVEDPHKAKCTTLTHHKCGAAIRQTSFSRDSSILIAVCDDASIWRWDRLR
Sequence of wild type PRC2 (wtPRC2) complex (Q15910 whole entry partner): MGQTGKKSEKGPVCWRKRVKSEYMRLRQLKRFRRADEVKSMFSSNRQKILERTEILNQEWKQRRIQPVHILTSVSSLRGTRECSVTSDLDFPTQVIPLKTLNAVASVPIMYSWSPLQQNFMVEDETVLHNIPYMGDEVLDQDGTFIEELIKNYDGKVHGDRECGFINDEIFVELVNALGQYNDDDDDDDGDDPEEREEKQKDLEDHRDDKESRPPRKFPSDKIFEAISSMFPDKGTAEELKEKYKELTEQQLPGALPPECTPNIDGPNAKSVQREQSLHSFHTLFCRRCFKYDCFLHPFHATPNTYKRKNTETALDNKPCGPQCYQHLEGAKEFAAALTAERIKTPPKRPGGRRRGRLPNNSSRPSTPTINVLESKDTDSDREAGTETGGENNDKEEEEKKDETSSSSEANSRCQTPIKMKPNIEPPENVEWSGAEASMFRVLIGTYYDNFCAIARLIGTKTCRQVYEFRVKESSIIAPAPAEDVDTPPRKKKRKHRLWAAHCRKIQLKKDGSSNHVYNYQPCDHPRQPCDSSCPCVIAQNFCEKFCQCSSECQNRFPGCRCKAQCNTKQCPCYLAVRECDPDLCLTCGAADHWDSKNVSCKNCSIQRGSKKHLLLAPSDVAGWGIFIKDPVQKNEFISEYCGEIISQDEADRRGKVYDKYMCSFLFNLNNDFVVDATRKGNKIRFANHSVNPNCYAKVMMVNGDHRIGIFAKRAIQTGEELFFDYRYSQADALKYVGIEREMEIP
Sequence of wild type PRC2 (wtPRC2) complex (Q15022 whole entry partner): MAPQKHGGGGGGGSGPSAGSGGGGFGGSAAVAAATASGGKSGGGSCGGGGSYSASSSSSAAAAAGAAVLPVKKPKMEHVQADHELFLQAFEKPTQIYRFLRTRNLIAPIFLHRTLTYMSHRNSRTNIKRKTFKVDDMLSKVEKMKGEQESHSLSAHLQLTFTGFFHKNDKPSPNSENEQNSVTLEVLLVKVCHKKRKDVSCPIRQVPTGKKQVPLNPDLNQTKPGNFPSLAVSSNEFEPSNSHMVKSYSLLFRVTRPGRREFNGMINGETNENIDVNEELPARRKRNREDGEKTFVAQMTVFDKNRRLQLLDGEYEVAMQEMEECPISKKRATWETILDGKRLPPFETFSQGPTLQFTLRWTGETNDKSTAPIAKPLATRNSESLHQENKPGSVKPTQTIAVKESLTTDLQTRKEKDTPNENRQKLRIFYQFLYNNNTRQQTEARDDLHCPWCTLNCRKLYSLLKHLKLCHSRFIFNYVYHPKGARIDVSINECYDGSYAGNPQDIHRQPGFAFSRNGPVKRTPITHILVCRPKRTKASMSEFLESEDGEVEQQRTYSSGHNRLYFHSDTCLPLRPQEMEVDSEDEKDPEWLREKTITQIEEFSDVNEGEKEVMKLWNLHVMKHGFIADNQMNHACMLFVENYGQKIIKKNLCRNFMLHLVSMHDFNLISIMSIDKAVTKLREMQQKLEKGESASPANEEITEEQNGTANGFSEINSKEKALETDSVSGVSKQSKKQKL
Sequence of wild type PRC2 (wtPRC2) complex (Q09028 whole entry partner): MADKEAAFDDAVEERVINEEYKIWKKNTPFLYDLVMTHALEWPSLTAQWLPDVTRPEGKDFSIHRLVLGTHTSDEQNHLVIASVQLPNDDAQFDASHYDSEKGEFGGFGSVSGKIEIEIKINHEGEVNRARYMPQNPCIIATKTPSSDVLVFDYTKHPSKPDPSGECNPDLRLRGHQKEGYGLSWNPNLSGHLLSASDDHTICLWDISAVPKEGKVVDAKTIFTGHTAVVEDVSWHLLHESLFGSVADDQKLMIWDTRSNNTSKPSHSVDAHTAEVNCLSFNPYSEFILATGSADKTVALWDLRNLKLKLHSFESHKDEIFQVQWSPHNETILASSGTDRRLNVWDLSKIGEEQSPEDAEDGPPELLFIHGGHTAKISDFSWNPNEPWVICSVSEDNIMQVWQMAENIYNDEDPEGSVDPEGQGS
Sequence of wild type PRC2 (wtPRC2) complex (Q6ZN18 whole entry partner): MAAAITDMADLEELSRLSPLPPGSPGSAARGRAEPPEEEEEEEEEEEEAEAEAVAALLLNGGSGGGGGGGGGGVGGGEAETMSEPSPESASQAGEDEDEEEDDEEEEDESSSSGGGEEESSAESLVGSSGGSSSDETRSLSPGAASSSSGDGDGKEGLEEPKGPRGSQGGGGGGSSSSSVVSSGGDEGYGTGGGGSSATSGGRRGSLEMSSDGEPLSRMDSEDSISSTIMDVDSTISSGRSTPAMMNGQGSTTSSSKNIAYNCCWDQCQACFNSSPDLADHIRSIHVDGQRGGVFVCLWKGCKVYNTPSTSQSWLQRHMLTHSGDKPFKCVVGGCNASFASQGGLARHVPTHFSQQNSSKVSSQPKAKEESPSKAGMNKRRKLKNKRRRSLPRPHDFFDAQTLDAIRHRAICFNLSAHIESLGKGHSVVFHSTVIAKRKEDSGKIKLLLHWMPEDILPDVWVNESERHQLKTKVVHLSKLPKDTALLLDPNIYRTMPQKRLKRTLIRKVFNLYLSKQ
Method in brief: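 LC-MS/MS readout of SAH (d4-SAH standard) after TFA quench gives PRC2 activity, normalized to controls and fitted to dose-response for IC50. Reaction: 12 nM EZH2/SUZ12/EED/Rbap48/AEBP complex, 1 μM SAM, 1.5 μM H3[21-44] peptide, 120 min rt, 20 min compound preincubation.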

[3] = test system: H3K27 methylation in G401 cell; test: ELISA (H3K27 methylation) assay in G401 cells; format: cell-based, human; conditions: Homo sapiens
Method in brief: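 IC50 from dose-response fit of percent inhibition relative to DMSO, using H3K27me3/me2 ELISA signal (ECL) normalized to histone H3. Histones HCl-extracted after 48 h compound exposure of G401 cells at up to 20 μM, 8- or 12-point 3-fold series.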

[4] = EED-H3K27Me3 peptide competition, AlphaScreen
[5] = G-401, H3K27 methylation ELISA, read-out: (c) IC50 ELISA Qualified
[6] = G-401, read-out: (c) IC50 ELISA Qualified

T1 sequence (O75530 whole entry): as the sequence (O75530 whole entry) above

SMILES	IC50 [1, 4] [nM]	IC50 ([2]; PRC2 LC-MS assay) [nM]	IC50 [3, 5] [nM]	IC50 [1] [nM]	IC50 [2] [nM]	IC50 [3, 6] [nM]
COc1cccc(F)c1CNc1ccc(-c2cc(Cl)cnc2C)c2nncn12 [Example 326, 8-(5-chloro-2-methylpyridin-3-yl)-N-(2-fluoro-6-methoxybenzyl)-[1,2,4]triazolo[4,3-a] pyridin-5-amine]	26.1	71.6	29.8	–	–	–
COc1c(F)ccc(F)c1CNc1ccc(-c2cccnc2C)c2nncn12 [Example 327, N-(3,6-difluoro-2-methoxybenzyl)-8-(2-methylpyridin-3-yl)-[1,2,4]triazolo[4,3-a] pyridin-5-amine]	48.3	172	51.9	–	–	–
COc1ncccc1CNc1ccc(-c2cccnc2C)c2nncn12 [Example 328, N-((2-methoxypyridin-3-yl)methyl)-8-(2-methylpyridin-3-yl)-[1,2,4]triazolo[4,3-a] pyridin-5-amine]	73.5	284	76.3	–	–	–
COc1cc(F)cc(F)c1CNc1ccc(-c2cnc(C)cc2C)c2nncn12 [Example 329, N-(2,4-difluoro-6-methoxybenzyl)-8-(4,6-dimethylpyridin-3-yl)-[1,2,4]triazolo [4,3-a]pyridin-5-amine]	31.1	1360	48	–	–	–
COc1cccc(F)c1CNc1ccc(-c2cn(C)nc2CO)c2nncn12 [Example 330, (4-(5-((2-fluoro-6-methoxy benzyl)amino)-[1,2,4]triazolo[4,3-a]pyridin-8-yl)-1-methyl-1H-pyrazol-3-yl) methanol]	24	96.2	24	–	–	–
COc1cccc(F)c1CNc1ccc(-c2cnc(OC(C)C)nc2C)c2nncn12 [Example 332, N-(2-fluoro-6-methoxybenzyl)-8-(2-isopropoxy-4-methylpyrimidin-5-yl)-[1,2,4] triazolo[4,3-a]pyridin-5-amine]	8.2	26.6	7.3	–	–	–
COc1c(F)ccc(F)c1CNc1ccc(-c2cnc(C)nc2C)c2nncn12 [Example 333, N-(3,6-difluoro-2-methoxybenzyl)-8-(2,4-dimethylpyrimidin-5-yl)-[1,2,4] triazolo[4,3-a]pyridin-5-amine]	95.1	286	67.6	–	–	–
COc1c(F)ccc(F)c1CNc1ccc(-c2ccc(S(C)(=O)=O)nc2C)c2nncn12 [Example 334, N-(3,6-difluoro-2-methoxybenzyl)-8-(2-methyl-6-(methylsulfonyl)pyridin-3-yl)-[1,2,4]triazolo[4,3-a] pyridin-5-amine]	38	144	31.6	–	–	–
COc1cccc(Cl)c1CNc1ccc(-c2cccnc2C)c2nncn12 [Example 335, N-(2-chloro-6-methoxybenzyl)-8-(2-methylpyridin-3-yl)-[1,2,4]triazolo[4,3-a] pyridin-5-amine]	84.5	254	318	–	–	–
COc1cccc(F)c1CNc1ccc(-c2cnn(C)c2CO)c2nncn12 [Example 336, (4-(5-((2-fluoro-6-methoxy benzyl)amino)-[1,2,4]triazolo[4,3-a]pyridin-8-yl)-1-methyl-1H-pyrazol-5-yl) methanol]	12.8	59.5	12.1	–	–	–
COc1cccc(F)c1CNc1ccc(-c2cc(C)ncc2C(F)F)c2nncn12 [Example 337, 8-(5-(difluoromethyl)-2-methylpyridin-4-yl)-N-(2-fluoro-6-methoxybenzyl)-[1,2,4]triazolo[4,3-a]pyridin-5-amine]	23.8	166	43.1	–	–	–
COc1cccc(F)c1CNc1ccc(-c2c(Cl)ccnc2C)c2nncn12 [Example 338, 8-(4-chloro-2-methylpyridin-3-yl)-N-(2-fluoro-6-methoxybenzyl)-[1,2,4]triazolo[4,3-a] pyridin-5-amine]	7.4	42.1	16.2	–	–	–
COc1cccc(F)c1CNc1ccc(-c2ccc(CC#N)nc2C)c2nncn12 [Example 339, 2-(5-(5-((2-fluoro-6-methoxybenzyl)amino)-[1,2,4]triazolo[4,3-a]pyridin-8-yl)-6-methylpyridin-2-yl) acetonitrile]	6	20.9	6.7	–	–	–
COc1cccc(F)c1CNc1ccc(-c2cccnc2C#N)c2nncn12 [Example 340, 3-(5-((2-fluoro-6-methoxybenzyl)amino)-[1,2,4]triazolo[4,3-a]pyridin-8-yl) picolinonitrile]	12.5	523	25.5	–	–	–
COc1cccc(F)c1CNc1ccc(-c2cccnc2CC#N)c2nncn12 [Example 341, 2-(3-(5-((2-fluoro-6-methoxybenzyl)amino)-[1,2,4]triazolo[4,3-a]pyridin-8-yl)pyridin-2-yl)acetonitrile]	21.6	95.5	21.9	–	–	–
CCOc1ncc(-c2ccc(NCc3c(F)cc(F)cc3OC)n3cnnc23)c(C)n1 [Example 343, N-(2,4-difluoro-6-methoxybenzyl)-8-(2-ethoxy-4-methylpyrimidin-5-yl)-[1,2,4]triazolo[4,3-a]pyridin-5-amine]	25.7	492	36.5	–	–	–
COc1cccc(F)c1CNc1ccc(-c2cnccc2CO)c2nncn12 [Example 345, (3-(5-((2-fluoro-6-methoxy benzyl)amino)-[1,2,4]triazolo[4,3-a]pyridin-8-yl)pyridin-4-yl)methanol]	7.6	24.5	10.4	–	–	–
COc1ncccc1CNc1ccc(-c2cnc(C)nc2C)c2nncn12 [Example 348, 8-(2,4-dimethylpyrimidin-5-yl)-N-((2-methoxypyridin-3-yl)methyl)-[1,2,4]triazolo [4,3-a]pyridin-5-amine]	–	–	–	85.1	209	45.5
COc1cc(F)cc(F)c1CNc1ccc(-c2cnc(OC(C)C)nc2C)c2nncn12 [Example 349, N-(2,4-difluoro-6-methoxybenzyl)-8-(2-isopropoxy-4-methylpyrimidin-5-yl)-[1,2,4]triazolo[4,3-a]pyridin-5-amine]	–	–	–	22.9	291	31.2
COc1cccc(F)c1CNc1ccc(-c2cc(C#N)cnc2C)c2nncn12 [Example 350, 5-(5-((2-fluoro-6-methoxybenzyl)amino)-[1,2,4]triazolo[4,3-a]pyridin-8-yl)-6-methylnicotinonitrile]	–	–	–	32.2	45.4	16.4
COc1cccc(F)c1CNc1ccc(-c2ccc(C(C)C)nc2C)c2nncn12 [Example 351, N-(2-fluoro-6-methoxybenzyl)-8-(6-isopropyl-2-methylpyridin-3-yl)-[1,2,4]triazolo[4,3-a]pyridin-5-amine]	–	–	–	23.4	22.9	15.5
COc1cccc(F)c1CNc1ccc(-c2cnc(C(C)C)cc2C)c2nncn12 [Example 352, N-(2-fluoro-6-methoxybenzyl)-8-(6-isopropyl-4-methylpyridin-3-yl)-[1,2,4] triazolo[4,3-a]pyridin-5-amine]	–	–	–	29.5	106	32
COc1cccc(F)c1CNc1ccc(-n2cc(C)cn2)c2nncn12 [Example 353, N-(2-fluoro-6-methoxybenzyl)-8-(4-methyl-1H-pyrazol-1-yl)-[1,2,4]triazolo [4,3-a]pyridin-5-amine]	–	–	–	25.8	156	39.3
